IC50 data for 11 compounds are collected here from patent publication US20250163104A1, “MACROCYCLIC IMMUNOMODULATORS” (priority 2021, published 2025).

This experiment addresses T1, human PD-1 / PD-L1-Ig binding on Jurkat cell line over-expressing human PD-1 (Jurkat-PD-1) (Homo sapiens, UniProt Q15116).
T1 construct: expressed in transfected cells; host or cells: Jurkat
In words: Jurkat-PD-1 Cell Binding High-Content Screening Assay (CBA). The class given is cell-based. The conditions noted are these: Jurkat-PD-1 cells, PE-labeled PD-L1-Ig 20 nM final; read-out: Jurkat HPD1_PDL1 IC50. The gist of the method:
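Jurkat cells over-expressing human PD-1, in DMEM/10% FCS, pre-incubated with compound 2 h at 37° C. PE-labeled human PD-L1-Ig (20 nM final) added for 1 h; cells fixed in paraformaldehyde with Hoechst 33342 nuclear stain, washed, and bound fluorescence quantified by high-content imaging.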

Where a SMILES comes first, the peptide text is derived from it. Bridges are numbered along the chain shown (N, C = ends). [ ]: non-standard residue; d: D form. The star is where a group is joined. Phe(4-COOH) = N[C@@H](Cc1ccc(C(=O)O)cc1)C(=O)O; Bip = N[C@@H](Cc1ccc(-c2ccccc2)cc1)C(=O)O; Phe(3-Me) = Cc1cccc(C[C@H](N)C(=O)O)c1; hPhe = N[C@@H](CCc1ccccc1)C(=O)O; 3Pal = N[C@@H](Cc1cccnc1)C(=O)O; 4Pal = N[C@@H](Cc1ccncc1)C(=O)O; 2Thi = N[C@@H](Cc1cccs1)C(=O)O; Cha = N[C@@H](CC1CCCCC1)C(=O)O; Cit = NC(=O)NCCC[C@H](N)C(=O)O; Carboxymethyl = O=C(O)C*; Orn = NCCC[C@H](N)C(=O)O; Dab = NCC[C@H](N)C(=O)O; Dap = NC[C@H](N)C(=O)O; Piv = CC(C)(C)C(=O)*

T1 sequence (Q15116 25-288): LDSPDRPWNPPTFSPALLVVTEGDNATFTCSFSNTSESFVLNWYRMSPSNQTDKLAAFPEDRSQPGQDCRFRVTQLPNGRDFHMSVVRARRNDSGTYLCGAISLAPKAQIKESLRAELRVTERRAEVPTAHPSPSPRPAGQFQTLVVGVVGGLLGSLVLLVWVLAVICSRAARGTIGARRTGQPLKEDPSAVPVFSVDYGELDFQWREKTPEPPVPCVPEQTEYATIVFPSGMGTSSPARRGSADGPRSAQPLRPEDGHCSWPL

Take `Cc1cccc(C[C@@H]2NC(=O)[C@H](CC(=O)O)NC(=O)[C@H](Cc3ccc(C(=O)O)cc3)NC(=O)[C@H](Cc3ccncc3)NC(=O)CSC[C@@H](C(N)=O)NC(=O)[C@H]([C@@H](C)O)NC(=O)[C@H](C(C)C)NC(=O)[C@H](CC3CCCCC3)NC(=O)[C@H](CCN)NC(=O)[C@@H](CC(C)C)NC(=O)[C@H](CCCN)NC(=O)[C@H](C(C)C)NC(=O)[C@H](Cc3ccc(-c4ccccc4)cc3)NC(=O)[C@H](C(C)C)NC2=O)c1` [Compound 1548] ({CH2CO}-[4Pal][Phe(4-COOH)]D[Phe(3-Me)]V[Bip]V[Orn][dL][Dab][Cha]VTC-NH2; thioether N-14): the IC50 worked out at 18.4 nM.
To `CC(C)C[C@H]1NC(=O)[C@H](CCCN)NC(=O)[C@H](CCC(=O)O)NC(=O)[C@H](Cc2ccc(-c3ccccc3)cc2)NC(=O)[C@H](C(C)C)NC(=O)[C@H](Cc2cccs2)NC(=O)[C@H](CC(=O)O)NC(=O)[C@H](Cc2ccc(OCC(=O)O)cc2)NC(=O)[C@H](CN)NC(=O)CSC[C@@H](C(=O)N[C@@H](C)C(N)=O)NC(=O)[C@H]([C@@H](C)O)NC(=O)[C@H](C(C)C)NC(=O)[C@H](CC2CCCCC2)NC(=O)[C@H](CCN)NC1=O` [Compound 2153] ({CH2CO}-[Dap]Y(Carboxymethyl)D[2Thi]V[Bip]E[Orn][dL][Dab][Cha]VTCA-NH2; thioether N-14) belongs 10.1 nM.
For the compound `CNC[C@@H]1NC(=O)CSC[C@@H](C(=O)N[C@@H](C)C(N)=O)NC(=O)[C@H](C(C)O)NC(=O)[C@H](C(C)C)NC(=O)[C@H](CC2CCCCC2)NC(=O)[C@H](CCN)NC(=O)[C@@H](CC(C)C)NC(=O)[C@H](CCCN)NC(=O)[C@H](C(C)C)NC(=O)[C@H](Cc2ccc(-c3ccccc3)cc2)NC(=O)[C@H](C(C)C)NC(=O)[C@H](Cc2c[nH]c3ccccc23)NC(=O)[C@H](CC(=O)O)NC(=O)[C@H](Cc2ccc(OCC(=O)O)cc2)NC1=O` (some centres unmarked) [Compound 2515], the IC50 stood at 16.3 nM.
The same measure for `CC(C)C[C@@H]1NC(=O)[C@H](CC(N)=O)NC(=O)[C@@H](CC(C)C)NC(=O)[C@H](CN)NC(=O)[C@H](C(C)C)NC(=O)[C@H](Cc2ccc(-c3ccccc3)cc2)NC(=O)[C@H](C(C)C)NC(=O)[C@H](Cc2c[nH]c3ccccc23)NC(=O)[C@H](CC(=O)O)NC(=O)[C@H](Cc2ccncc2)NC(=O)[C@H](CN)NC(=O)CSC[C@@H](C(=O)NCC(N)=O)NC(=O)[C@H](CO)NC(=O)[C@H](C(C)C)NC1=O` [Compound 1293] ({CH2CO}-[Dap][4Pal]DWV[Bip]V[Dap][dL]NLVSCG-NH2; thioether N-14): 10.6 nM.
The same measure for `Cc1cccc(C[C@@H]2NC(=O)[C@H](CC(=O)O)NC(=O)[C@H](Cc3ccc(OCC(=O)O)cc3)NC(=O)[C@H](Cc3ccncc3)NC(=O)CSC[C@@H](C(=O)N[C@@H](CCNC(=O)C(C)(C)C)C(N)=O)NC(=O)[C@H]([C@@H](C)O)NC(=O)[C@H](C(C)C)NC(=O)[C@H](CC3CCCCC3)NC(=O)[C@H](CCN)NC(=O)[C@@H](CC(C)C)NC(=O)[C@H](CCN)NC(=O)[C@H](Cc3ccc(OCC(=O)O)cc3)NC(=O)[C@H](Cc3ccc(-c4ccccc4)cc3)NC(=O)[C@H](Cc3ccc(OCC(=O)O)cc3)NC2=O)c1` [Compound 2060] ({CH2CO}-[4Pal]Y(Carboxymethyl)D[Phe(3-Me)]Y(Carboxymethyl)[Bip]Y(Carboxymethyl)[Dab][dL][Dab][Cha]VTC[Dab](Piv)-NH2; thioether N-14): 19.3 nM.
The same measure for `CC(C)C[C@@H]1NC(=O)[C@H](CCN)NC(=O)[C@@H](CC(C)C)NC(=O)[C@H](CN)NC(=O)[C@H](CCCNC(N)=O)NC(=O)[C@H](Cc2ccc(-c3ccccc3)cc2)NC(=O)[C@H](C(C)C)NC(=O)[C@H](Cc2c[nH]c3ccccc23)NC(=O)[C@H](CC(=O)O)NC(=O)[C@H](Cc2ccc(O)cc2)NC(=O)[C@H](CC(N)=O)NC(=O)CSC[C@@H](C(=O)N[C@@H](C)C(N)=O)NC(=O)[C@H]([C@@H](C)O)NC(=O)[C@H](C(C)C)NC1=O` [Compound 1024] ({CH2CO}-NYDWV[Bip][Cit][Dap][dL][Dab]LVTCA-NH2; thioether N-14): 37.3 nM; for `CC(C)C[C@H]1NC(=O)[C@H](CCCN)NC(=O)[C@H](CCCNC(N)=O)NC(=O)[C@H](Cc2ccc(-c3ccccc3)cc2)NC(=O)[C@H](C(C)C)NC(=O)[C@H](Cc2c[nH]c3ccccc23)NC(=O)[C@H](CC(=O)O)NC(=O)[C@H](Cc2ccc(O)cc2)NC(=O)[C@H](Cc2ccc(OCC(=O)O)cc2)NC(=O)CSC[C@@H](C(=O)N[C@@H](C)C(N)=O)NC(=O)[C@H]([C@@H](C)O)NC(=O)[C@H](C(C)C)NC(=O)[C@H](CC2CCCCC2)NC(=O)[C@H](CCCNC(=N)N)NC1=O` [Compound 1154] ({CH2CO}-Y(Carboxymethyl)YDWV[Bip][Cit][Orn][dL]R[Cha]VTCA-NH2; thioether N-14): 9.2 nM; for `CC(C)C[C@@H]1NC(=O)[C@H](CCN)NC(=O)[C@@H](CC(C)C)NC(=O)[C@H](CCCN)NC(=O)[C@H](CCC(=O)O)NC(=O)[C@H](Cc2ccc(-c3ccccc3)cc2)NC(=O)[C@H](C(C)C)NC(=O)[C@H](Cc2c[nH]c3ccccc23)NC(=O)[C@H](CC(=O)O)NC(=O)[C@H](Cc2ccc(O)cc2)NC(=O)[C@H](CC(N)=O)NC(=O)CSC[C@@H](C(=O)N[C@@H](C)C(N)=O)NC(=O)[C@H]([C@@H](C)O)NC(=O)[C@H](C(C)C)NC1=O` [Compound 1016] ({CH2CO}-NYDWV[Bip]E[Orn][dL][Dab]LVTCA-NH2; thioether N-14): 31.9 nM.
Consider `Cc1cccc(C[C@@H]2NC(=O)[C@H](CC(=O)O)NC(=O)[C@H](Cc3ccc(OCC(=O)O)cc3)NC(=O)[C@H](Cc3cccnc3)NC(=O)CSC[C@@H](C(=O)N[C@@H](C)C(N)=O)NC(=O)[C@H]([C@@H](C)O)NC(=O)[C@H](C(C)C)NC(=O)[C@H](CC(C)C)NC(=O)[C@H](CCN)NC(=O)[C@@H](CC(C)C)NC(=O)[C@H](CCCN)NC(=O)[C@H](C(C)C)NC(=O)[C@H](Cc3ccc(-c4ccccc4)cc3)NC(=O)[C@H](C(C)C)NC2=O)c1` [Compound 1218] ({CH2CO}-[3Pal]Y(Carboxymethyl)D[Phe(3-Me)]V[Bip]V[Orn][dL][Dab]LVTCA-NH2; thioether N-14), for which the IC50 is 5.6 nM.
To `CC(C)C[C@H]1NC(=O)[C@H](CCCN)NC(=O)[C@H](CCCNC(N)=O)NC(=O)[C@H](Cc2ccc(-c3ccccc3)cc2)NC(=O)[C@H](C(C)C)NC(=O)[C@H](Cc2c[nH]c3ccccc23)NC(=O)[C@H](CC(=O)O)NC(=O)[C@H](CCc2ccccc2)NC(=O)[C@H](CN)NC(=O)CSC[C@@H](C(=O)N[C@@H](C)C(N)=O)NC(=O)[C@H]([C@@H](C)O)NC(=O)[C@H](C(C)C)NC(=O)[C@H](CC2CCCCC2)NC(=O)[C@H](CCN)NC1=O` [Compound 2126] ({CH2CO}-[Dap][hPhe]DWV[Bip][Cit][Orn][dL][Dab][Cha]VTCA-NH2; thioether N-14) belongs 7.9 nM; to `CCCC[C@@H]1NC(=O)[C@H](Cc2ccc(-c3ccccc3)cc2)NC(=O)[C@H](C(C)C)NC(=O)[C@H](Cc2cccc(C)c2)NC(=O)[C@H](CC(=O)O)NC(=O)[C@H](Cc2ccc(C(=O)O)cc2)NC(=O)[C@H](Cc2ccncc2)NC(=O)CSC[C@@H](C(=O)N[C@@H](C)C(N)=O)NC(=O)[C@H]([C@@H](C)O)NC(=O)[C@H](C(C)C)NC(=O)[C@H](CC2CCCCC2)NC(=O)[C@H](CCN)NC(=O)[C@@H](CC(C)C)NC(=O)[C@H](CCCN)NC1=O` [Compound 1613], 20.7 nM.
